Source: PubChem BioAssay AID1963831 (Molecular Pharmacology Branch, DTP, NCI, 2024)

Test system: 889142-216-R-J1-PDC complex spheroid viability
Experiment: Anticancer human tumor 889142-216-R-J1-PDC patient-derived bladder carcinoma cell line growth inhibition [POLQ]
Conditions: for IC50: curve of first compound; for viability, T/C: stronger effect = lower value
Outline: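 Complex spheroid viability model combining PDC tumour cells with endothelial (HUVEC) and MSC stromal cells. Novobiocin, ART-558 or RP6685 were tested singly and in combination with standard and investigational anticancer drugs. Each was titrated in half-log steps from near clinical Cmax, or from 10 microM where Cmax was unknown.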

[1] = second compound 0.0316 µM, first compound 0.0316 µM
[2] = second compound 0.0316 µM, first compound 0.1 µM
[3] = second compound 0.0316 µM, first compound 0.316 µM
[4] = second compound 0.0316 µM, first compound 1 µM
[5] = second compound 0.0316 µM, first compound 3.16 µM
[6] = second compound 0.0316 µM, first compound 10 µM
[7] = second compound 0.1 µM, first compound 0.0316 µM
[8] = second compound 0.1 µM, first compound 0.1 µM
[9] = second compound 0.1 µM, first compound 0.316 µM
[10] = second compound 0.1 µM, first compound 1 µM
[11] = second compound 0.1 µM, first compound 3.16 µM
[12] = second compound 0.1 µM, first compound 10 µM
[13] = second compound 0.316 µM, first compound 0.0316 µM
[14] = second compound 0.316 µM, first compound 0.1 µM
[15] = second compound 0.316 µM, first compound 0.316 µM
[16] = second compound 0.316 µM, first compound 1 µM
[17] = second compound 0.316 µM, first compound 3.16 µM
[18] = second compound 0.316 µM, first compound 10 µM
[19] = second compound 1 µM, first compound 0.0316 µM
[20] = second compound 1 µM, first compound 0.1 µM
[21] = second compound 1 µM, first compound 0.316 µM
[22] = second compound 1 µM, first compound 1 µM
[23] = second compound 1 µM, first compound 3.16 µM
[24] = second compound 1 µM, first compound 10 µM
[25] = second compound 3.16 µM, first compound 0.0316 µM
[26] = second compound 3.16 µM, first compound 0.1 µM
[27] = second compound 3.16 µM, first compound 0.316 µM
[28] = second compound 3.16 µM, first compound 1 µM
[29] = second compound 3.16 µM, first compound 3.16 µM
[30] = second compound 3.16 µM, first compound 10 µM
[31] = second compound 10 µM, first compound 0.0316 µM
[32] = second compound 10 µM, first compound 0.1 µM
[33] = second compound 10 µM, first compound 0.316 µM
[34] = second compound 10 µM, first compound 1 µM
[35] = second compound 10 µM, first compound 3.16 µM
[36] = second compound 10 µM, first compound 10 µM
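Further: spheroids exposed to compounds for seven days.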
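Wherever viability, T/C is given: 100% = DMSO vehicle control viability.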

## Nc1ccn(C2OC(CO)C(O)C2(F)F)c(=O)n1 (centres undefined) + Nc1ccc(C#CCN(C(=O)Cc2ncc(C(F)(F)F)cc2C(F)(F)F)c2ccc(F)cc2)nn1
Second compound 0.0316 µM
  IC50: 0.233 µM
Second compound 0.1 µM
  IC50: 0.386 µM
Second compound 0.316 µM
  IC50: 0.363 µM
Second compound 1 µM
  IC50: 0.292 µM
Second compound 3.16 µM
  IC50: 3.39 µM
Second compound 10 µM
  IC50: 5.26 µM
[1]
  viability, T/C: 74.1%
[2]
  viability, T/C: 56.1%
[3]
  viability, T/C: 46%
[4]
  viability, T/C: 45.2%
[5]
  viability, T/C: 40.9%
[6]
  viability, T/C: 35.9%
[7]
  viability, T/C: 62.8%
[8]
  viability, T/C: 57.8%
[9]
  viability, T/C: 48.9%
[10]
  viability, T/C: 47.2%
[11]
  viability, T/C: 38.8%
[12]
  viability, T/C: 34.5%
[13]
  viability, T/C: 61.8%
[14]
  viability, T/C: 56.1%
[15]
  viability, T/C: 50.9%
[16]
  viability, T/C: 44%
[17]
  viability, T/C: 45.6%
[18]
  viability, T/C: 39.6%
[19]
  viability, T/C: 69.8%
[20]
  viability, T/C: 55.6%
[21]
  viability, T/C: 47%
[22]
  viability, T/C: 48.5%
[23]
  viability, T/C: 43.5%
[24]
  viability, T/C: 36.7%
[25]
  viability, T/C: 56.4%
[26]
  viability, T/C: 60.7%
[27]
  viability, T/C: 60%
[28]
  viability, T/C: 55.7%
[29]
  viability, T/C: 49.5%
[30]
  viability, T/C: 39.7%
[31]
  viability, T/C: 88.9%
[32]
  viability, T/C: 73.6%
[33]
  viability, T/C: 69.5%
[34]
  viability, T/C: 51.7%
[35]
  viability, T/C: 55.7%
[36]
  viability, T/C: 46.5%

## O=c1[nH]cc(F)c(=O)[nH]1 + Nc1ccc(C#CCN(C(=O)Cc2ncc(C(F)(F)F)cc2C(F)(F)F)c2ccc(F)cc2)nn1
Second compound 0.0316 µM
  IC50: > 10 µM
Second compound 0.1 µM
  IC50: > 10 µM
Second compound 0.316 µM
  IC50: > 10 µM
Second compound 1 µM
  IC50: > 10 µM
Second compound 3.16 µM
  IC50: > 10 µM
Second compound 10 µM
  IC50: > 10 µM
[1]
  viability, T/C: 91.6%
[2]
  viability, T/C: 86.2%
[3]
  viability, T/C: 90%
[4]
  viability, T/C: 80%
[5]
  viability, T/C: 81.1%
[6]
  viability, T/C: 60.7%
[7]
  viability, T/C: 91.1%
[8]
  viability, T/C: 78.8%
[9]
  viability, T/C: 58.8%
[10]
  viability, T/C: 75.1%
[11]
  viability, T/C: 67.1%
[12]
  viability, T/C: 69.1%
[13]
  viability, T/C: 108%
[14]
  viability, T/C: 73.9%
[15]
  viability, T/C: 68%
[16]
  viability, T/C: 82.7%
[17]
  viability, T/C: 68.3%
[18]
  viability, T/C: 61.7%
[19]
  viability, T/C: 83.4%
[20]
  viability, T/C: 101%
[21]
  viability, T/C: 79.8%
[22]
  viability, T/C: 66.6%
[23]
  viability, T/C: 61.9%
[24]
  viability, T/C: 60.1%
[25]
  viability, T/C: 82.7%
[26]
  viability, T/C: 89.2%
[27]
  viability, T/C: 83.3%
[28]
  viability, T/C: 67.4%
[29]
  viability, T/C: 72.4%
[30]
  viability, T/C: 73.8%
[31]
  viability, T/C: 109%
[32]
  viability, T/C: 103%
[33]
  viability, T/C: 83.2%
[34]
  viability, T/C: 78.4%
[35]
  viability, T/C: 68.6%
[36]
  viability, T/C: 67.2%
